Reference: patent US12268694B2, “Combination pharmaceutical agents as RSV inhibitors” (Enanta Pharmaceuticals, Inc., priority 2017, dated 2025)

How the values were obtained:
[1] = system: genotype A, "Long" strain RSV; experiment: RSV-A assay: CPE protection in HEp-2 cells, ATPlite readout; assay type: cell-based, human respiratory syncytial virus; settings: human respiratory syncytial virus, HEp-2, read-out: Human RSV-A (“Long” strain) EC50
How it was run: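 HEp-2 cells (8,000/well) with 2-fold compound dilutions in duplicate, infected with Long-strain RSV at MOI 0.1 and incubated 5 days. Cell ATP measured by ATPlite luminescence to give EC50; uninfected parallel plate gives CC50.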

HEp-2 cells = experiment: Cytotoxicity in parallel to the RSV-A assay (no virus), ATPlite readout; assay type: cell-based, human
Description: Following extensive parameter testing, the final assay is run as follows: HEp-2 cells are seeded into the inner 60 wells of a 96-well plate at 8,000 cells per well in a volume of 50 μL using Growth Media (DMEM without phenol red, 1% L-Glut, 1% Penn/Strep, 1% nonessential amino acids, 10% heat-inactivated FBS). 2-fold serial dilutions of control and test compounds are added to the wells in duplicate in a total volume of 25 μL. Viral stock is then added to the wells at a multiplicity of infection (MOI) of 0.1 in a volume of 25 μL, bringing the total volume of each well to 100 μL. The MOI is calculated using the PFU/mL, or TCID50 if unavailable. Each 96-well plate has a control column of 6 wells with cells and virus but no compound (negative control, max CPE), a column with cells but no compound or virus (positive control, minimum CPE), and a column with no cells or virus or compound (background plate/reagent control). The control wells with cells but no virus are given an additional 25 μL of growth media containing an equal quantity of sucrose as those wells receiving the viral stock in order to keep consistent in media and volume conditions. The outer wells of the plate are filled with 125 μL of moat media (DMEM, 1% Penn/Strep) to act as a thermal and evaporative moat around the test wells. Following a 5-day incubation period, the plates are read using ATPlite (50 μL added per well), which quantifies the amount of ATP (a measure of cell health) present in each well. Assay plates are read using the Envision luminometer. In parallel, cytotoxicity is examined on an additional 96-well plate treated in an identical manner, but substituting the 25 μL of viral stock for 25 μL of growth media. […] EC50 ranges are as follows: A <0.4 μM; B 0.4-0.8 μM; C >0.8 μM and CC50 ranges are as follows: A >50 μM; B 10-50 μM; C <10 μM.

Row | Compound | EC50 [1] [µM] | CC50 (HEp-2 cells) [µM]
1 | COc1ccc(-c2nnc(NC3N=C(c4ccccc4)c4ccccc4NC3=O)o2)cc1 (stereo not drawn) [Example 8] | > 0.8 | > 50
2 | O=C1Nc2ccccc2C(c2ccccc2)=N[C@H]1Nc1nnc(-c2ccco2)o1 [Example 10b] | > 0.8 | < 10
3 | COc1cccc(-c2nnc(NC3N=C(c4ccccc4)c4ccccc4NC3=O)o2)n1 (stereo not drawn) [Example 52] | < 0.4 | > 50
4 | O=C1Nc2ccccc2C(c2ccccc2)=NC1Nc1nnc(-c2ccc3nc[nH]c3c2)o1 (stereo not drawn) [Example 41] | > 0.8 | > 50
5 | O=C1Nc2ccccc2C(c2ccccc2)=NC1Nc1cc(N2CCOCC2)ncn1 (stereo not drawn) [Example 93] | > 0.8 | 10 to 50
6 | O=C1Nc2ccccc2C(c2ccccc2)=NC1Nc1nnc(-c2cccnc2)o1 (stereo not drawn) [Example 37] | > 0.8 | > 50
7 | O=C1Nc2ccccc2C(c2ccccc2)=NC1Nc1nc2ccccc2s1 (stereo not drawn) [Example 101] | > 0.8 | 10 to 50
8 | O=C1Nc2ccccc2C(c2ccccc2)=NC1Nc1nnc(-c2cncs2)o1 (stereo not drawn) [Example 76] | > 0.8 | > 50
9 | N#Cc1cccc(-c2nnc(NC3N=C(c4ccccc4)c4ccccc4NC3=O)o2)c1 (stereo not drawn) [Example 35] | > 0.8 | > 50
10 | N#Cc1cc(-c2nnc(NC3N=C(c4ccccc4)c4ccccc4NC3=O)o2)ccn1 (stereo not drawn) [Example 38] | > 0.8 | > 50
11 | Cn1cnc(-c2nnc(NC3N=C(c4ccccc4)c4ccccc4NC3=O)o2)c1 (stereo not drawn) [Example 68] | > 0.8 | > 50
12 | COc1cccc(-c2nnc(NC3N=C(c4ccccc4)c4ccccc4NC3=O)o2)c1 (stereo not drawn) [Example 4] | > 0.8 | > 50
13 | O=C1Nc2ccccc2C(c2ccccc2)=NC1Nc1nc2c(F)cccc2o1 (stereo not drawn) [Example 105] | > 0.8 | > 50
14 | CC(C)Oc1cccc(-c2nnc(NC3N=C(c4ccccc4)c4ccccc4NC3=O)o2)c1 (stereo not drawn) [Example 15] | 0.4 to 0.8 | > 50
15 | O=C1Nc2ccccc2C(c2ccccc2)=NC1Nc1ccnc(-c2ccccc2)n1 (stereo not drawn) [Example 96] | > 0.8 | 10 to 50
16 | O=C1Nc2ccccc2C(c2ccccc2)=NC1Nc1nnc(-c2ccc(Cl)cc2)o1 (stereo not drawn) [Example 13] | < 0.4 | > 50
17 | O=C1Nc2ccccc2C(c2ccccc2)=NC1Nc1nnc(-c2cncnc2)o1 (stereo not drawn) [Example 60] | > 0.8 | > 50
18 | O=C1Nc2ccccc2C(c2ccccc2)=NC1Nc1cccn(Cc2ccccc2)c1=O (stereo not drawn) [Example 97] | > 0.8 | > 50
19 | O=C1Nc2ccccc2C(c2ccccc2)=NC1Nc1nc(N2CCOCC2)ns1 (stereo not drawn) [Example 88] | > 0.8 | 10 to 50
20 | O=C1Nc2ccccc2C(c2ccccc2)=NC1Nc1nnc(-c2ncccn2)o1 (stereo not drawn) [Example 59] | > 0.8 | > 50
21 | Cc1cc(-c2nnc(NC3N=C(c4ccccc4)c4ccccc4NC3=O)o2)ccc1C#N (stereo not drawn) [Example 34] | 0.4 to 0.8 | > 50
22 | N#Cc1ccc(-c2nnc(NC3N=C(c4ccccc4)c4ccccc4NC3=O)o2)cc1F (stereo not drawn) [Example 33] | > 0.8 | > 50
23 | COc1ccnc(-c2nnc(NC3N=C(c4ccccc4)c4ccccc4NC3=O)o2)c1 (stereo not drawn) [Example 57] | > 0.8 | > 50
24 | O=C1Nc2ccccc2C(c2ccccc2)=NC1Nc1cc(Oc2ccccc2)ncn1 (stereo not drawn) [Example 94] | > 0.8 | 10 to 50
25 | O=C1Nc2ccccc2C(c2ccccc2)=NC1Nc1nnc(-c2ccncn2)o1 (stereo not drawn) [Example 63] | > 0.8 | > 50
26 | Cc1cccc(-c2nnc(NC3N=C(c4ccccc4)c4ccccc4NC3=O)o2)n1 (stereo not drawn) [Example 26] | > 0.8 | > 50

Row | Compound | EC50 [1] [µM] | CC50 (HEp-2 cells) [µM]
27 | O=C1Nc2ccccc2C(c2ccccc2)=NC1Nc1nnc(-c2cccnn2)o1 (stereo not drawn) [Example 62] | > 0.8 | > 50
28 | O=C1Nc2ccccc2C(c2ccccc2)=NC1Nc1nnc(C2CCNCC2)o1 (stereo not drawn) [Example 45] | > 0.8 | > 50
29 | COCc1cccc(-c2nnc(NC3N=C(c4ccccc4)c4ccccc4NC3=O)o2)n1 (stereo not drawn) [Example 64] | > 0.8 | > 50
30 | COc1ccc(-c2nnc(NC3N=C(c4ccccc4)c4ccccc4NC3=O)o2)nc1 (stereo not drawn) [Example 51] | 0.4 to 0.8 | > 50
31 | O=C1Nc2ccccc2C(c2ccccc2)=NC1Nc1nnc(-c2ccc(=O)[nH]c2)o1 (stereo not drawn) [Example 39] | > 0.8 | > 50
32 | CN1CCC(c2nnc(NC3N=C(c4ccccc4)c4ccccc4NC3=O)o2)CC1 (stereo not drawn) [Example 46] | > 0.8 | > 50
33 | N#Cc1ccc(-c2nnc(NC3N=C(c4ccccc4)c4ccccc4NC3=O)o2)cc1 (stereo not drawn) [Example 12] | 0.4 to 0.8 | > 50
34 | O=C1Nc2ccccc2C(c2ccccc2)=NC1Nc1nnco1 (stereo not drawn) [Example 79] | > 0.8 | > 50
35 | O=C1Nc2ccccc2C(c2ccccc2)=NC1Nc1nnc(-c2cnco2)o1 (stereo not drawn) [Example 75] | > 0.8 | > 50
36 | O=C1Nc2ccccc2C(c2ccccc2)=NC1Nc1nnc(-c2ccncc2)o1 (stereo not drawn) [Example 61] | 0.4 to 0.8 | > 50
37 | O=C1Nc2ccccc2C(c2ccccc2)=NC1Nc1nnc(-c2cscn2)o1 (stereo not drawn) [Example 77] | 0.4 to 0.8 | > 50
38 | O=C1Nc2ccccc2C(c2ccccc2)=N[C@H]1Nc1nnc(-c2ccc(F)cc2)o1 [Example 7b] | > 0.8 | 10 to 50
39 | O=C1Nc2ccccc2C(c2ccccc2)=NC1Nc1ncc(-c2ccccc2)o1 (stereo not drawn) [Example 84] | > 0.8 | 10 to 50
40 | O=C1Nc2ccccc2C(c2ccccc2)=NC1Nc1nnc(-c2cccc3ccccc23)o1 (stereo not drawn) [Example 17] | > 0.8 | > 50
41 | O=C1Nc2ccccc2C(c2ccccc2)=NC1Nc1nnc(-c2ccc3ccccc3c2)o1 (stereo not drawn) [Example 16] | 0.4 to 0.8 | > 50
42 | CN1CCc2nc(-c3nnc(NC4N=C(c5ccccc5)c5ccccc5NC4=O)o3)sc2C1 (stereo not drawn) [Example 44] | > 0.8 | > 50
43 | O=C1Nc2ccccc2C(c2ccccc2)=NC1Nc1nc(-c2ccccc2)cs1 (stereo not drawn) [Example 90] | > 0.8 | < 10
44 | O=C1Nc2ccccc2C(c2ccccc2)=NC1Nc1nnc(-c2ccccc2)s1 (stereo not drawn) [Example 81] | > 0.8 | > 50
45 | Cc1ccc(-c2nnc(NC3N=C(c4ccccc4)c4ccccc4NC3=O)o2)s1 (stereo not drawn) [Example 19] | > 0.8 | > 50
46 | COc1ccccc1-c1nnc(NC2N=C(c3ccccc3)c3ccccc3NC2=O)o1 (stereo not drawn) [Example 9] | > 0.8 | > 50
47 | O=C1Nc2ccccc2C(c2ccccc2)=NC1Nc1nc2ccccc2o1 (stereo not drawn) [Example 100] | > 0.8 | 10 to 50
48 | O=C1Nc2ccccc2C(c2ccccc2)=NC1Nc1nnc([C@@H]2COCCN2)o1 (stereo partly drawn) [Example 48] | > 0.8 | > 50
49 | Cc1cc(-c2nnc(NC3N=C(c4ccccc4)c4ccccc4NC3=O)o2)on1 (stereo not drawn) [Example 74] | > 0.8 | > 50
50 | O=C1Nc2ccccc2C(c2ccccc2)=NC1Nc1nnc(Cc2ccccc2)o1 (stereo not drawn) [Example 22] | > 0.8 | > 50
51 | O=C1Nc2ccccc2C(c2ccccc2)=NC1Nc1nnc(C2CC2)o1 (stereo not drawn) [Example 5] | > 0.8 | > 50
